Reference: PMC8667935, “Synthesis and biological evaluation of celastrol derivatives as potent antitumor agents with STAT3 inhibition” (Journal of Enzyme Inhibition and Medicinal Chemistry, 2021)

Experiments:
STAT3 [1] = biological target: T1, STAT3 (Homo sapiens, UniProt P40763); experiment: SPR (Biacore T200, STAT3 amine-coupled to CM5 chip); assay type: binding
T1 construct: recombinant human STAT3 protein (rhSTAT3)

STAT3 [2] = biological target: T1, STAT3; experiment: SPR (Biacore T200, STAT3 amine-coupled to CM5 chip); positive control measured by the authors; assay type: binding

T1 sequence (P40763 2-770): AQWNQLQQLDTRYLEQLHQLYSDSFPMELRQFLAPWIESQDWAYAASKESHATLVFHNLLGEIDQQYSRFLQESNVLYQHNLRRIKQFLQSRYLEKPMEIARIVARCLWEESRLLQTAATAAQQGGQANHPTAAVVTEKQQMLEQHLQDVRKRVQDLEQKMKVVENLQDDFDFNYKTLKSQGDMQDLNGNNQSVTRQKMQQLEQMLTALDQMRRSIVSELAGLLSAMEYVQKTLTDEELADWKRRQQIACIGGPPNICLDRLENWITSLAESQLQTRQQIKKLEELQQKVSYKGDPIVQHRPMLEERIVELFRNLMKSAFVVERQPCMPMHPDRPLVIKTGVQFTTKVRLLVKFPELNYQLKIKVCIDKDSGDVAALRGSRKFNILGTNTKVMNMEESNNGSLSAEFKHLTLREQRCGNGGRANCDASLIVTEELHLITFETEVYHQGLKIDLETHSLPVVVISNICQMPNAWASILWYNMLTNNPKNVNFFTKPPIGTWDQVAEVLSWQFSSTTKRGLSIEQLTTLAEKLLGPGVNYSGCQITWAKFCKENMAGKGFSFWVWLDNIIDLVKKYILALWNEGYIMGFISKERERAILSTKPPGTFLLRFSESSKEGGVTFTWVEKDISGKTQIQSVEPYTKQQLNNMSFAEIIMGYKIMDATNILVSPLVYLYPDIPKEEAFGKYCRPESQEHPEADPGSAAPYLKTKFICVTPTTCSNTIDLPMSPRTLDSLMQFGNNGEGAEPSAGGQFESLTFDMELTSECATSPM

Row | Kd (STAT3 [1]) | SMILES | Kd (STAT3 [2])
1 | 45.3 µM | CC1=C(O)C(=O)C=C2C1=CC=C1[C@@]2(C)CC[C@@]2(C)[C@@H]3C[C@](C)(C(=O)NCCc4cccs4)CC[C@]3(C)CC[C@]12C [4m, 3-Hydroxy-9β,13α-dimethyl-2-oxo-24,25,26-trinoroleana-1(10),3,5,7-tetraen-29-oic acid 2–(2-thienyl) ethylamide] | 
2 |  | CC1=C(O)C(=O)C=C2C1=CC=C1[C@@]2(C)CC[C@@]2(C)[C@@H]3C[C@](C)(C(=O)O)CC[C@]3(C)CC[C@]12C [CEL, Celastrol] | 60.4 µM
